Source: patent US12441768B2, “Compositions and methods for treating endometriosis” (EndoMet Biosciences, Inc., priority 2018, dated 2025)
Where a SMILES comes first, the peptide text is derived from it. [ ]: non-standard residue; d: D form. The star is where a group is joined. ξ: configuration not given here. NMeW = CN[C@@H](Cc1c[nH]c2ccccc12)C(=O)O; Stearoyl = CCCCCCCCCCCCCCCCCC(=O)*; ξIle = CC[C@H](C)C(N)C(=O)O; ξαMeV = CC(C)C(C)(N)C(=O)O; ξαMeS = CC(N)(CO)C(=O)O; Piv = CC(C)(C)C(=O)*; βAla = NCCC(=O)O

Legend:
[1] = test system: colon cancer cell line (SW480); assay type: cell-based; conditions: for Cell growth / viability: SW480, peptide added daily, 7 days
Procedure: Peptides inhibiting β-catenin cause decreased cell viability in a colon cancer cell line (SW480) and endometriosis lesions excised from a disease animal model. Peptides from libraries described herein are characterized in their effect on cell viability, as measured using a luminescent cell viability assay (Cell Titer-Glo®, Promega, Madison, WI) and expressed as IC50 in Table 5. Peptide inhibitors were tested for their ability to inhibit cellular proliferation across 2 different β-catenin expressing pathogenic cell lines: a colon cancer cell line (SW480) and/or mouse EMS lesion cells derived from mouse model of disease. Both cells lines are naturally known to express high levels of β-catenin. Cell lines were incubated with varying concentrations of peptide concentration and assessed for viability after day 5 and 7 days. The CellTiter-Glo® Luminescent Cell Viability Assay (Promega) is used to detect viable cells. IC50 values are graphed and calculated using Prism software (GraphPad) based on the cell viability readouts. IC50 is used to assess inhibition of cell proliferation by peptide concentration and is used to calculate the inhibitory effect of each peptide across each line. The results are used to assess the therapeutic potency of the peptides. In the SW480 cell line, peptide inhibitors from Family 1 (SEQ ID NO:264) and Family 2 (SEQ ID NO:396) were added daily to the cell growth medium. After 7 days, cell viability was assessed with the Cell-Titer Glo kit (Promega, Madison, WI). […] IC50 was calculated for peptides based on the concentration at which 50% viability was observed (Table 5).

β-catenin = biological target: T1, β-catenin (Homo sapiens, UniProt P35222); experiment: KD50 measurement using competitive fluorescence polarization (FP) with labelled TCF4; assay type: binding; conditions: fluorescence polarization, β-catenin; for Kd: read-out: β-Cat FP KD
T1 sequence (P35222 1-781): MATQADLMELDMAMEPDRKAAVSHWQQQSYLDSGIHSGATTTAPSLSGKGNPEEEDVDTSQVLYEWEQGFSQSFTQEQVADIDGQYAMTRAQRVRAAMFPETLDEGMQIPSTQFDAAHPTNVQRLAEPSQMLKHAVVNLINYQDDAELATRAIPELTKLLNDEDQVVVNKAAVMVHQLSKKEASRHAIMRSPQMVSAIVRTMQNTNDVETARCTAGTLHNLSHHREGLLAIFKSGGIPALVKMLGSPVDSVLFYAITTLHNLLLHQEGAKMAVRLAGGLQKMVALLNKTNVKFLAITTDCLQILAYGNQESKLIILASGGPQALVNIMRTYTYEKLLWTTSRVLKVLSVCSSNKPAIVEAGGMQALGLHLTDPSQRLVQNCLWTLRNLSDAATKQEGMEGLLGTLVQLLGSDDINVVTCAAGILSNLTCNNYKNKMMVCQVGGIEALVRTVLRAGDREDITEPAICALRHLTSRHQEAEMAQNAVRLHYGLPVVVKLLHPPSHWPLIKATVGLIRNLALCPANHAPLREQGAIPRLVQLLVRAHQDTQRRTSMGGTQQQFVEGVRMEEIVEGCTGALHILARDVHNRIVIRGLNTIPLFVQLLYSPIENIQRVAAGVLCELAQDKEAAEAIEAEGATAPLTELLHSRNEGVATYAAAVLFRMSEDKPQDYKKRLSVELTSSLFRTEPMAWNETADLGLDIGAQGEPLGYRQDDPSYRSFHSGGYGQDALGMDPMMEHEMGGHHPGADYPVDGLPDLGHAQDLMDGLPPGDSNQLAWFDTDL
Outline: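 First, β-catenin at 100 nM is mixed with 5 nM labelled TCF4 at room temperature. Next, compound is added across serial dilutions (10 nM to 30 uM). Finally, fluorescence polarization is measured (ex 470 nm, em 520 nm); experiments are done three times.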

[2] = biological target: Wnt-responsive promoter (TCF/LEF); experiment: Wnt-dependent luciferase reporter assay; assay type: cell-based, murine
Outline: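 Murine 3T3 fibroblasts carrying a TCF/LEF-driven luciferase reporter, stimulated with Wnt3a in the presence of increasing peptide concentrations or vehicle. Luminescence inhibition gave EC50 values in uM.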

in vitro = conditions: % Viability non-Wnt responsive cells

| β-Cat FP Hill slope (β-catenin) | Kd (β-catenin) | IC50 [1] | EC50 [2] | Structure (SMILES) | Cell growth / viability [1] | viability (in vitro) |
| --- | --- | --- | --- | --- | --- | --- |
| – | – | – | – | CCCCCCCCCCCCCCCC(=O)N[C@@H](Cc1c[nH]c2ccccc12)C(=O)N(C)[C@@H](Cc1c[nH]c2ccccc12)C(=O)N[C@@H](CCC(=O)O)C(=O)NC(C)(CO)C(=O)N[C@H](C(=O)N[C@@H](CC(C)C)C(=O)N[C@@H](CC(=O)O)C(=O)N[C@@H](CCC(=O)O)C(=O)N[C@@H](Cc1c[nH]cn1)C(=O)NC(C)(C(=O)N[C@@H](CCC(N)=O)C(=O)N[C@@H](CCCNC(=N)N)C(=O)N[C@H](C(=O)N[C@@H](Cc1c[nH]c2ccccc12)C(=O)NCC(=O)O)C(C)C)C(C)C)[C@@H](C)CC (single isomer, unassigned) [SEQ ID NO: 396, Palmitoyl-W-NmeW-E-aMeS-ILDEH-aMeV-QRVWG-COOH] | inhibited cell growth | – |
| – | – | – | – | CC[C@H](C)[C@H](NC(=O)[C@H](CC(C)C)NC(=O)[C@@H](NC(=O)[C@H](Cc1c[nH]c2ccccc12)NC(=O)[C@H](CCSC)N(C)C)[C@@H](C)CC)C(=O)N[C@@H](CO)C(=O)N[C@@H](Cc1ccccc1)C(=O)N[C@@H](Cc1c[nH]c2ccccc12)C(=O)NCC(=O)O [SEQ ID NO: 264] (HELM PEPTIDE1{[CSCC[C@@H](C(=O)[*:2])N(C)C].W.I.L.I.S.F.W.G}$$$$V2.0) | inhibited cell growth | – |
| 0.8 | < 0.4 µM | 18.5 µM | – | CCCCCCCCCCCCCC(=O)NCC(=O)N[C@@H](Cc1c[nH]c2ccccc12)C(=O)N(C)[C@@H](Cc1c[nH]c2ccccc12)C(=O)N[C@@H](CCC(=O)O)C(=O)N[C@@H](CO)C(=O)N[C@H](C(=O)N[C@@H](CC(C)C)C(=O)N[C@@H](CC(=O)O)C(=O)N[C@@H](CCC(=O)O)C(=O)N[C@@H](Cc1c[nH]cn1)C(=O)N[C@H](C(=O)N[C@@H](CCC(N)=O)C(=O)N[C@@H](CCCNC(=N)N)C(=O)N[C@H](C(=O)N[C@@H](Cc1c[nH]c2ccccc12)C(=O)NCC(=O)O)C(C)C)C(C)C)[C@@H](C)CC [compound 1] (HELM PEPTIDE1{[CCCCCCCCCCCCCC(=O)[*:2]].G.W.[meW].E.S.I.L.D.E.H.V.Q.R.V.W.G}$$$$V2.0) | – | – |
| 1.72 | 0.4 to 1 µM | – | > 30 µM | CC[C@H](C)[C@@H]1NC(=O)[C@H](Cc2c[nH]cn2)NC(=O)[C@H](CCC(=O)O)NC(=O)[C@H](Cc2ccccc2)NC(=O)[C@H](Cc2c[nH]c3ccccc23)NC(=O)[C@H](CO)NC(=O)[C@H]([C@@H](C)CC)NC(=O)[C@H](C)N(C)C(=O)[C@H](CC(C)C)NC(=O)[C@@H]2CCCN2C(=O)[C@H](CCSC)NC(=O)[C@@H](N)CCCCNC(=O)CNC1=O [compound 29] (HELM PEPTIDE1{K.M.P.L.[meA].I.S.W.F.E.H.I.G}$PEPTIDE1,PEPTIDE1,1:R3-13:R2$$$V2.0; bridges inferred) | – | 107% |
| 0.7 | 1 to 10 µM | – | > 30 µM | CC[C@H](C)[C@@H]1NC(=O)[C@H](CO)NC(=O)[C@H](CCC(=O)O)NC(=O)[C@H](C)N(C)C(=O)[C@H](CCSC)NC(=O)[C@@H](N)CCCCNC(=O)CNC(=O)[C@H](Cc2c[nH]c3ccccc23)NC(=O)[C@H](C(C)C)NC(=O)[C@H](CCCNC(=N)N)NC(=O)[C@H](CCC(N)=O)NC(=O)[C@H](C(C)C)NC(=O)[C@H](Cc2c[nH]cn2)NC(=O)[C@H](CCC(=O)O)NC(=O)[C@H](CC(=O)O)NC(=O)[C@H](CC(C)C)NC1=O [compound 30] (HELM PEPTIDE1{K.M.[meA].E.S.I.L.D.E.H.V.Q.R.V.W.G}$PEPTIDE1,PEPTIDE1,1:R3-16:R2$$$V2.0; bridges inferred) | – | 106% |
| 0.7 | 0.4 to 1 µM | – | 7.5 to 15 µM | CC[C@H](C)[C@H](NC(=O)[C@H](CC(C)C)NC(=O)[C@H](Cc1ccccc1)NC(=O)[C@H](Cc1c[nH]c2ccccc12)NC(=O)[C@@H](N)CCSC)C(=O)N[C@@H](CS)C(=O)N[C@@H](Cc1ccccn1)C(=O)N[C@@H](Cc1c[nH]c2ccccc12)C(=O)NCC(=O)O [compound 148] (HELM PEPTIDE1{M.W.F.L.I.C.[O=C([C@H](Cc1ccccn1)N[*:1])[*:2]].W.G}$$$$V2.0) | – | 95.5% |
| 1.92 | 0.4 to 1 µM | – | < 7.5 µM | CC[C@@H](C)[C@H]1NC(=O)[C@@H](CC(C)C)NC(=O)[C@@H](Cc2ccccc2)NC(=O)[C@H](Cc2c[nH]c3ccccc23)NC(=O)[C@@H](CCSC)NC(=O)CCCCCCCCCCCNC(=O)C[C@@H](C(=O)O)NC(=O)[C@H](Cc2c[nH]c3ccccc23)NC(=O)[C@@H](Cc2ccccc2)NC(=O)[C@H](CS)NC1=O [compound 190] (HELM PEPTIDE1{[O=C(CCCCCCCCCCCN[*:1])[*:2]].[dM].W.[dF].[dL].[dI].C.[dF].W.D}$PEPTIDE1,PEPTIDE1,1:R1-10:R3$$$V2.0) | – | 99.6% |
| 2.34 | 0.4 to 1 µM | – | < 7.5 µM | CC[C@H](C)[C@H]1NC(=O)[C@H](CC(C)C)NC(=O)[C@@H](Cc2ccccc2)NC(=O)[C@H](Cc2c[nH]c3ccccc23)NC(=O)[C@@H](CCSC)NC(=O)CCCCCCCCCCCNC(=O)C[C@@H](C(=O)O)NC(=O)[C@H](Cc2c[nH]c3ccccc23)NC(=O)[C@@H](C)NC(=O)[C@@H](CS)NC1=O [compound 193] (HELM PEPTIDE1{[O=C(CCCCCCCCCCCN[*:1])[*:2]].[dM].W.[dF].L.[CC[C@H](C)[C@@H](N[*:1])C(=O)[*:2]].[dC].[dA].W.D}$PEPTIDE1,PEPTIDE1,1:R1-10:R3$$$V2.0) | – | 96.6% |
| 1.04 | < 0.4 µM | – | < 7.5 µM | CC[C@H](C)C(NC(=O)[C@H](CC(C)C)NC(=O)C(NC(=O)[C@H](Cc1c[nH]c2ccccc12)NC(=O)[C@H](CCSC)NC(=O)C(C)(C)C)[C@@H](C)CC)C(=O)N[C@@H](CO)C(=O)N[C@@H](Cc1ccccc1)C(=O)N[C@@H](Cc1c[nH]c2ccccc12)C(=O)NCC(=O)O (stereo partly drawn) [compound 224] (Piv-MW[ξIle]L[ξIle]SFWG-OH) | – | 95.7% |
| – | – | 4.7 µM | 7.5 to 15 µM | CCCCCCCCCCCCCCCCCC(=O)N[C@@H](Cc1c[nH]c2ccccc12)C(=O)N(C)[C@@H](Cc1c[nH]c2ccccc12)C(=O)N[C@@H](CCC(=O)O)C(=O)NC(C)(CO)C(=O)N[C@H](C(=O)N[C@@H](CC(C)C)C(=O)N[C@@H](CC(=O)O)C(=O)N[C@@H](CCC(=O)O)C(=O)N[C@@H](Cc1c[nH]cn1)C(=O)NC(C)(C(=O)N[C@@H](CCC(N)=O)C(=O)N[C@@H](CCCNC(=N)N)C(=O)N[C@H](C(=O)N[C@@H](Cc1c[nH]c2ccccc12)C(=O)NCC(=O)O)C(C)C)C(C)C)[C@@H](C)CC (stereo partly drawn) [compound 390] (Stearoyl-W[NMeW]E[ξαMeS]ILDEH[ξαMeV]QRVWG-OH) | – | – |
| – | – | 4.8 µM | < 7.5 µM | CCCCCCCCCCCCCCCCCC(=O)NCCC(=O)N[C@@H](Cc1c[nH]c2ccccc12)C(=O)N(C)[C@@H](Cc1c[nH]c2ccccc12)C(=O)N[C@@H](CCC(=O)O)C(=O)NC(C)(CO)C(=O)N[C@H](C(=O)N[C@@H](CC(C)C)C(=O)N[C@@H](CC(=O)O)C(=O)N[C@@H](CCC(=O)O)C(=O)N[C@@H](Cc1c[nH]cn1)C(=O)NC(C)(C(=O)N[C@@H](CCC(N)=O)C(=O)N[C@@H](CCCNC(=N)N)C(=O)N[C@H](C(=O)N[C@@H](Cc1c[nH]c2ccccc12)C(=O)NCC(=O)O)C(C)C)C(C)C)[C@@H](C)CC (stereo partly drawn) [compound 391] ({Stearoyl-βAla}-W[NMeW]E[ξαMeS]ILDEH[ξαMeV]QRVWG-OH) | – | – |
